{"source": "patent US20200031920A1", "about": "“Combination Therapy for Treating Cancer” (The George Washington University, priority 2017, published 2020)", "molecules": {"B1": {"name": "recombinant IL-11: recombinant human IL-11 (R&D Systems) (protein, UniProt P20809 22-199, looked up)", "Interleukin-11": "PGPPPGPPRVSPDPRAELDSTVLLTRSLLADTRQLAAQLRDKFPADGDHNLDSLPTLAMSAGALGALQLPGVLTRLRADLLSYLRHVQWLRRAGGSSLKTLEPELGTLQARLDRLLRRLQLLMSRLALPQPPPDPPAPPLAPPSSAWGGIRAAHAILGGLHLTLDWAVRGLLLLKTRL"}}, "key": {"[1]": {"system": "SKOV3 CR cells", "test": "cell viability / proliferation (SRB) assay, cisplatin resistant SKOV3 CR cells", "type": "cell-based", "settings": "for sensitization of SKOV3 CR cells to cisplatin (proliferation): combination with cisplatin at different doses, FIG. 13: 0.4 μM LY2784544, five days; for medium CI (combination index): combination with cisplatin, CI<1 synergism", "procedure": "(§1) FIG. 1 is a line graph showing the proliferation of SKOV3 parental and SKOV3 CR cells treated with increasing concentrations of cisplatin for five days. Data are represented as mean±SD from three independent experiments performed in triplicate. Indicated IC50 values represent the mean of two independent experiments performed in triplicate.\n(§2) FIG. 13 is a line graph showing the proliferation of SKOV3 parental and SKOV3 CR cells treated with increasing concentrations of cisplatin and 0.4 μM LY2784544 for five days. Data are represented as mean±SD from three independent experiments performed in triplicate.\n(§3) Cisplatin resistant ovarian cancer cell lines were generated using procedures as described previously. Jazaeri et al., Mol Cancer Ther 12: 1958-1967 (2013). Ovarian cancer cells SKOV3 were cultured in the medium with cisplatin (Sigma-Aldrich) for three weeks, followed by release to cisplatin-free medium for another three weeks. In the next cycle, the cisplatin treatment was repeated in the medium with an increased concentration of cisplatin. After six-cycle treatment, cells were identified that were able to grow in the medium with a high concentration of cisplatin. These cisplatin resistant cells were named as SKOV3 CR (FIG. 1).\n(§4) The results obtained from combinational HTS were confirmed by testing whether LY2784544 overcomes cisplatin resistance in ovarian cancer cells using multiple assays. […] The Combination index (CI), which quantitatively describes the interaction between drugs including synergism (CI<1), additive effect (CI=1), and antagonism (CI>1), was calculated."}, "[2]": {"system": "SKOV3 CR cells", "test": "combinational high throughput screen with cisplatin", "type": "cell-based", "settings": "in combination with DMSO, 1 μM cisplatin or 20 μM cisplatin", "description": "A combinational HTS using multiple compound libraries including NPC (NIH Pharmaceutical Collection), MIPE (Mechanism interrogation plate), and LOPAC (The Library of Pharmacologically Active Compounds) was used to identify compounds that can overcome cisplatin resistance of SKOV3 CR cells (FIG. 5). The library of pharmacologically active compounds (LOPAC®) of 1280 compounds (1) was purchased from Sigma. The NCGC Pharmaceutical Collection (NPC) of 2816 compounds and mechanism interrogation plate (MIPE) library of 1920 compounds were previously described. Bromberg, J Clin Invest 109: 1139-1142 (2002) and Buchert et al., Oncogene 35: 939-951 (2016). Compounds from all libraries were obtained as powder and dissolved in dimethyl sulfoxide (DMSO) […]. Combinational HTS was performed as previously described. Szasz et al., Oncotarget 7: 49322-49333 (2016). A total of 6,016 compounds were screened. […] In the second screen, these 112 compounds were selected for a dose-response confirmation screen in combination with DMSO, 1 μM cisplatin or 20 μM cisplatin (FIG. 5)."}, "[3]": {"system": "phosphorylation of JAK2 (Y1007/1008) and STAT5 (Y694)", "test": "western blot of JAK2/STAT5 signaling", "type": "cell-based", "procedure": "FIG. 22 is an illustration showing that LY2784544 down-regulates JAK2/STAT5 signaling in SKOV3 CR cells. Cells were treated with the indicated concentrations of LY2784544 for 48 hr.\nFIG. 23 is an illustration showing the immunoblotting for the indicated targets in SKOV3 CR cells treated with vehicle (DMSO), 3 μM LY2784544, 5 μM cisplatin, or the combination for 48 hr.\nTo investigate the molecular mechanism by which the JAK2-mediated pathway regulates cisplatin resistance of ovarian cancer, the activation of the JAK2-mediated pathway in paired sensitive cell line (SKOV3, IGROV1, PEO1) and resistant cell lines (SKOV3 CR, IGROV1 CR, PEO4) was examined by western blot. Compared to cisplatin sensitive cells SKOV3 or IGROV1, the JAK2 protein levels are not changed in cisplatin resistant cells SKOV3 CR, IGROV1 CR, or PEO4.\nThe effects of LY2784544 on the JAK2/STAT5 signaling pathway in both SKOV3 and SKOV3 CR cells were examined."}, "[4]": {"system": "FRA1", "test": "immunoblot of phosphorylated and total FRA1", "type": "cell-based", "settings": "SKOV3 CR cells, 20 μM, 24 hr", "description": "FIG. 70 are illustrations ((A), (B), and (D)) and a bar graph (C) showing that ROS induces IL-11 expression by promoting expression of FOSL1 (FRA1). (A) is an illustration showing total and phosphorylated levels of FRA1 in SKOV3 and SKOV3 CR cells. […] (C) is a bar graph showing IL-11 levels measured by ELISA in the medium of SKOV3 CR cells transfected with FOSL1 siRNA for 48 hr. Data are represented as mean±SD from three independent experiments performed in triplicate. ***p<0.001. (D) is an illustration showing an immunoblot of phosphorylated and total FRA1 protein in SKOV3 CR cells treated with YCG063 20 μM for 24 hr.\nTo achieve this goal, pathway analyses using PathwayNet were conducted, which identified a total of 20 transcription factors that likely regulate IL-11. […] It was next tested whether ROS is required for activation or expression of FRA1 by treating SKOV3 CR cells with YGC063."}, "[5]": {"system": "IL-11", "test": "IL-11 secretion by ELISA in cell culture medium", "type": "cell-based, human", "settings": "24 hr", "procedure": "(§5) FIG. 69 are bar graphs ((A)-(C) and (E)-(F)) and illustrations ((D) and (G)) showing that reactive oxygen species (ROS) induces IL-11 expression. (A) is a bar graph showing quantification of ROS production in SKOV3 and SKOV3 CR cells. Data are represented as means±SD from three independent experiments. **p<0.01. Scale bar, 100 μm. (B) is a bar graph showing quantification of ROS production in SKOV3 CR cells after treatment with the ROS inhibitor YCG063 at 20 μM for 24 hr. Data are represented as means±SD from three independent experiments. ***p<0.001. (C) is a bar graph showing IL-11 levels measured by ELISA in the medium of SKOV3 CR cells treated with YCG063 at 20 μM for 24 hr. Data are represented as mean±SD from three independent experiments performed in triplicate. ***p<0.001. (D) is an illustration showing an immunoblot of phosphorylated JAK2 and STAT5 in SKOV3 CR cells treated with YCG063 (20 μM) for 24 hr. (E) is a bar graph showing quantification of ROS production in SKOV3 cells after treated with the ROS inhibitor YCG063 (20 μM), cisplatin (1 μM), or both for 24 hr. Data are represented as means±SD from three independent experiments. **p<0.01, ***p<0.001, n.s. means not significant by one-way ANOVA. (F) is a bar graph showing IL-11 levels measured by ELISA in SKOV3 cells treated with YCG063 (20 μM), cisplatin (1 μM) or both for 24 hr. Data are represented as mean±SD from three independent experiments performed in triplicate. ***p<0.001 by one-way ANOVA. (G) is an illustration showing an immunoblot of phosphorylated JAK2 and STAT5 in SKOV3 CR cells treated with YCG063 (20 μM), cisplatin (1 μM) or both for 24 hr.\nNext, the factor from medium that contributes to cisplatin resistance of SKOV3 CR cells was investigated. […] The cell-free culture medium, mouse serum, and patient serum were analyzed for IL-11 levels using a human IL-11 ELISA kit (R&D Systems) according to the manufacturer's instructions. The absorbance was read at 450 nm using a microplate reader (BioTek). The data were normalized to the cell number. […]"}, "[6]": {"system": "reactive oxygen species (ROS)", "test": "ROS production (CellROX Orange reagent)", "type": "cell-based", "settings": "SKOV3 cells, YCG063 20 μM, cisplatin 1 μM, 24 hr", "procedure": "as §5, with “(D) is an illustration showing an immunoblot of phosphorylated JAK2 and STAT5 in SKOV3 CR cells treated with YCG063 (20 μM) for 24 hr.” left out, “Data are represented as means±SD from three independent experiments. **p<0.01, ***p<0.001, n.s. means not significant by one-way ANOVA.” left out, “Data are represented as mean±SD from three independent experiments performed in triplicate. ***p<0.001 by one-way ANOVA. (G) is an illustration showing an immunoblot of phosphorylated JAK2 and STAT5 in SKOV3 CR cells treated with YCG063 (20 μM), cisplatin (1 μM) or both for 24 hr.” left out\nDNA damage induces generation of reactive oxygen species (ROS). […] ROS was detected with a live cell-permeable, fluorophore CellROX Orange reagent (Thermo Fisher Scientific) according to the manufacturer's instructions. […] ROS intensity was analyzed using ImageJ (NIH) software. […]"}, "[7]": {"system": "SKOV3 cells", "test": "cell viability / proliferation (SRB) assay, SKOV3 parental cells", "type": "cell-based", "procedure": "as §1, §2, §3, §4"}}, "data": [{"molecule": "NS(=O)(=O)OC[C@@H]1C[C@@H](n2ccc3c(N[C@H]4CCc5ccccc54)ncnc32)C[C@@H]1O", "note": "[MLN4924]", "values": [{"measurement": "sensitization of SKOV3 CR cells to cisplatin (proliferation)", "setting": "[1]", "value": "can sensitize SKOV3 CR cells to cisplatin"}, {"measurement": "sensitization to cisplatin in second (dose-response confirmation) screen", "setting": "[2]", "value": "significantly sensitize SKOV3 CR cells to cisplatin"}]}, {"molecule": "CCCCCOc1ccc(/C=N/NC(=O)CSc2c([N+](=O)[O-])ncn2C)cc1", "note": "[YCG063]", "values": [{"measurement": "phosphorylation of JAK2 and STAT5", "setting": "[3]; SKOV3 CR cells, YCG063 20 μM, 24 hr", "value": "significantly reduced"}, {"measurement": "expression and phosphorylation of FRA1", "setting": "[4]", "value": "reduced the expression of FRA1 as well as its phosphorylation"}, {"measurement": "IL-11 secretion", "setting": "[5]; SKOV3 CR cells, YCG063 20 μM", "value": "significantly reduced IL-11 secretion"}, {"measurement": "cisplatin-induced IL-11 secretion", "setting": "[5]; SKOV3 cells, YCG063 20 μM with cisplatin 1 μM", "value": "suppressed cisplatin-induced IL-11 secretion"}, {"measurement": "ROS production", "setting": "[6]", "value": "suppressed ROS production in SKOV3 cells"}]}, {"molecule": "Cc1cnc(Nc2ccc(CN3CCOCC3)cc2)nc1Nc1cccc(S(=O)(=O)NC(C)(C)C)c1", "note": "[TG46]", "values": [{"measurement": "medium CI (combination index)", "setting": "[1]; SKOV3 CR cells", "value": 0.77}]}, {"molecule": "N.N.O=C([O-])C1(C(=O)[O-])CCC1.[Pt+2]", "note": "[carboplatin]", "values": [{"measurement": "fold increase of IC50, SKOV3 CR compared to parental SKOV3", "setting": "[1]; 5 days", "value": 4, "unit": "fold"}, {"measurement": "IC50", "setting": "[1]; SKOV3 CR cells, 5 days", "value": 118, "unit": "µM"}, {"measurement": "IC50", "setting": "[7]; SKOV3 parental cells, 5 days", "value": 25.2, "unit": "µM"}]}, {"molecule": "Cc1cnc(Nc2ccc(OCCN3CCCC3)cc2)nc1Nc1cccc(S(=O)(=O)NC(C)(C)C)c1", "note": "[TG101348]", "values": [{"measurement": "medium CI (combination index)", "setting": "[1]; SKOV3 CR cells", "value": 0.77}]}, {"molecule": "C/C(=N\\NC(=S)N1CCC1)c1ccccn1", "note": "[NSC319726]", "values": [{"measurement": "sensitization of SKOV3 CR cells to cisplatin (proliferation)", "setting": "[1]", "value": "can sensitize SKOV3 CR cells to cisplatin"}, {"measurement": "sensitization to cisplatin in second (dose-response confirmation) screen", "setting": "[2]", "value": "significantly sensitize SKOV3 CR cells to cisplatin"}]}, {"molecule": "B1", "values": [{"measurement": "phosphorylation of JAK2 and STAT5", "setting": "[3]; SKOV3 parental cells, 10 ng/mL IL-11 for 4 hr", "value": "did increase the phosphorylation of JAK2 (Y1007/1008) as well as phosphorylation of STAT5 (Y694)"}, {"measurement": "resistance of SKOV3 cells to cisplatin (proliferation)", "setting": "[7]; IL-11 for 4 hr then cisplatin 5 days", "value": "significantly increased its resistance to cisplatin"}]}]}
